The first experiment concerns CD8+ T cells. Kind of experiment: Meta-analysis of published SARS-CoV-2 CD8 T cell epitope data curated in the IEDB (25 studies). The class given is cell-based, human. The following applies: CD8-restricted SARS-CoV-2 epitopes; Yes = recognized by 3 or more donors/different studies.
As for 1152 (YYQLYSTQL) [compound 1152], the Dominant entry is recorded as “Yes (more dominant epitopes are defined by being recognized by 3 or more donors/different studies)”. As for 1157 (HLVDFQVTI) [compound 1157], the Dominant result was “Yes (more dominant epitopes are defined by being recognized by 3 or more donors/different studies)”.

Take 1173 (QLRARSVSPK) [compound 1173]: the Dominant entry is recorded as “Yes (more dominant epitopes are defined by being recognized by 3 or more donors/different studies)”. With 1174 (RARSVSPKL) [compound 1174], the Dominant result was “Yes (more dominant epitopes are defined by being recognized by 3 or more donors/different studies)”.

For 1176 (KLFIRQEEV) [compound 1176], the Dominant result is given as “Yes (more dominant epitopes are defined by being recognized by 3 or more donors/different studies)”.

Take 1178 (VQELYSPIFLIV) [compound 1178]: the Dominant result is recorded as “Yes (more dominant epitopes are defined by being recognized by 3 or more donors/different studies)”.

As to 1180 (VFITLCFTLK) [compound 1180], the Dominant result was “Yes (more dominant epitopes are defined by being recognized by 3 or more donors/different studies)”. Turning to 1181 (IMLIIFWFSL) [compound 1181], the Dominant result was “Yes (more dominant epitopes are defined by being recognized by 3 or more donors/different studies)”. The same measure, in the same setting: the result for 1187 (IQYIDIGNY) [compound 1187] reads “Yes (more dominant epitopes are defined by being recognized by 3 or more donors/different studies)”; that for 1190 (KLGSLVVRC) [compound 1190], “Yes (more dominant epitopes are defined by being recognized by 3 or more donors/different studies)”; that for 1192 (LEYHDVRVVL) [compound 1192], “Yes (more dominant epitopes are defined by being recognized by 3 or more donors/different studies)”.

In the case of 1204 (YTNSFTRGVY) [compound 1204], the Dominant entry is given as “Yes (more dominant epitopes are defined by being recognized by 3 or more donors/different studies)”.

As to 1212 (STQDLFLPFF) [compound 1212], the Dominant entry is reported as “Yes (more dominant epitopes are defined by being recognized by 3 or more donors/different studies)”. On the same count and under the same terms, the result for 1220 (RFDNPVLPF) [compound 1220] reads “Yes (more dominant epitopes are defined by being recognized by 3 or more donors/different studies)”; that for 1225 (GVYFASTEK) [compound 1225], “Yes (more dominant epitopes are defined by being recognized by 3 or more donors/different studies)”. Still for that read-out and setting: the result for 1226 (TEKSNIIRGW) [compound 1226] reads “Yes (more dominant epitopes are defined by being recognized by 3 or more donors/different studies)”; that for 1228 (TLDSKTQSL) [compound 1228], “Yes (more dominant epitopes are defined by being recognized by 3 or more donors/different studies)”; that for 1229 (FCNDPFLGVYY) [compound 1229], “Yes (more dominant epitopes are defined by being recognized by 3 or more donors/different studies)”. Same read-out and setting: the result for 1233 (KSWMESEFRVY) [compound 1233] reads “Yes (more dominant epitopes are defined by being recognized by 3 or more donors/different studies)”. Regarding 1238 (SSANNCTFEY) [compound 1238], the Dominant result is “Yes (more dominant epitopes are defined by being recognized by 3 or more donors/different studies)”. Take 1245 (FVFKNIDGY) [compound 1245]: the Dominant entry is listed as “Yes (more dominant epitopes are defined by being recognized by 3 or more donors/different studies)”. The same measure, in the same setting: in the case of 1248 (IYSKHTPINL) [compound 1248] it was “Yes (more dominant epitopes are defined by being recognized by 3 or more donors/different studies)”; in that of 1249 (TPINLVRDL) [compound 1249], “Yes (more dominant epitopes are defined by being recognized by 3 or more donors/different studies)”. On to 1251 (LPQGFSAL) [compound 1251], for which the Dominant result is “Yes (more dominant epitopes are defined by being recognized by 3 or more donors/different studies)”. Turning to 1258 (LLALHRSYL) [compound 1258], the Dominant result is listed as “Yes (more dominant epitopes are defined by being recognized by 3 or more donors/different studies)”. As for 1259 (WTAGAAAYY) [compound 1259], the Dominant result is reported as “Yes (more dominant epitopes are defined by being recognized by 3 or more donors/different studies)”. Regarding 1260 (WTAGAAAYYVGY) [compound 1260], the Dominant result is on record as “Yes (more dominant epitopes are defined by being recognized by 3 or more donors/different studies)”. 1263 (YYVGYLQPRTF) [compound 1263]: the Dominant entry was “Yes (more dominant epitopes are defined by being recognized by 3 or more donors/different studies)”. For the substance 1266 (YLQPRTFLL) [compound 1266], the Dominant entry was “Yes (more dominant epitopes are defined by being recognized by 3 or more donors/different studies)”.

1286 (RISNCVADY) [compound 1286]: the Dominant entry is recorded as “Yes (more dominant epitopes are defined by being recognized by 3 or more donors/different studies)”. Still for that read-out and setting: in the case of 1287 (CVADYSVLY) [compound 1287] it was “Yes (more dominant epitopes are defined by being recognized by 3 or more donors/different studies)”; in that of 1291 (KCYGVSPTK) [compound 1291], “Yes (more dominant epitopes are defined by being recognized by 3 or more donors/different studies)”. Turning to 1296 (KIADYNYKL) [compound 1296], the Dominant result was “Yes (more dominant epitopes are defined by being recognized by 3 or more donors/different studies)”. The same measure, in the same setting: in the case of 1297 (KLPDDFTGCV) [compound 1297] it was “Yes (more dominant epitopes are defined by being recognized by 3 or more donors/different studies)”. As to 1298 (NLDSKVGGNY) [compound 1298], the Dominant result is “Yes (more dominant epitopes are defined by being recognized by 3 or more donors/different studies)”.

Still in this experiment, the particulars now being: CD8S (D) Megapool, antigen S; dominant = recognized in 3 or more donors/studies.
With 1469 (YTNSFTRGVY) [compound 1469], the Dominant entry is recorded as “Yes (more dominant epitopes are defined by being recognized by 3 or more donors/different studies)”. Still for that read-out and setting: in the case of 1470 (STQDLFLPFF) [compound 1470] it was “Yes (more dominant epitopes are defined by being recognized by 3 or more donors/different studies)”; in that of 1471 (RFDNPVLPF) [compound 1471], “Yes (more dominant epitopes are defined by being recognized by 3 or more donors/different studies)”. Still for that read-out and setting: the result for 1472 (GVYFASTEK) [compound 1472] reads “Yes (more dominant epitopes are defined by being recognized by 3 or more donors/different studies)”; that for 1473 (TEKSNIIRGW) [compound 1473], “Yes (more dominant epitopes are defined by being recognized by 3 or more donors/different studies)”; that for 1474 (TLDSKTQSL) [compound 1474], “Yes (more dominant epitopes are defined by being recognized by 3 or more donors/different studies)”. Still for that read-out and setting: the result for 1475 (SSANNCTFEY) [compound 1475] reads “Yes (more dominant epitopes are defined by being recognized by 3 or more donors/different studies)”; that for 1476 (FVFKNIDGY) [compound 1476], “Yes (more dominant epitopes are defined by being recognized by 3 or more donors/different studies)”. On to 1477 (IYSKHTPINL) [compound 1477], for which the Dominant entry is listed as “Yes (more dominant epitopes are defined by being recognized by 3 or more donors/different studies)”. The same measure, in the same setting: the result for 1478 (TPINLVRDL) [compound 1478] reads “Yes (more dominant epitopes are defined by being recognized by 3 or more donors/different studies)”; that for 1479 (LLALHRSYL) [compound 1479], “Yes (more dominant epitopes are defined by being recognized by 3 or more donors/different studies)”. Consider 1480 (WTAGAAAYY) [compound 1480], for which the Dominant result was “Yes (more dominant epitopes are defined by being recognized by 3 or more donors/different studies)”. The same measure, in the same setting: in the case of 1481 (YLQPRTFLL) [compound 1481] it was “Yes (more dominant epitopes are defined by being recognized by 3 or more donors/different studies)”; in that of 1482 (RISNCVADY) [compound 1482], “Yes (more dominant epitopes are defined by being recognized by 3 or more donors/different studies)”.

In the case of 1483 (CVADYSVLY) [compound 1483], the Dominant entry was “Yes (more dominant epitopes are defined by being recognized by 3 or more donors/different studies)”.

Take 1484 (KCYGVSPTK) [compound 1484]: the Dominant result is on record as “Yes (more dominant epitopes are defined by being recognized by 3 or more donors/different studies)”.

1485 (KIADYNYKL) [compound 1485]: the Dominant entry is reported as “Yes (more dominant epitopes are defined by being recognized by 3 or more donors/different studies)”.

For the substance 1486 (KLPDDFTGCV) [compound 1486], the Dominant result is “Yes (more dominant epitopes are defined by being recognized by 3 or more donors/different studies)”. In the case of 1487 (NLDSKVGGNY) [compound 1487], the Dominant result is on record as “Yes (more dominant epitopes are defined by being recognized by 3 or more donors/different studies)”.

Take 1488 (NYNYLYRLF) [compound 1488]: the Dominant entry is recorded as “Yes (more dominant epitopes are defined by being recognized by 3 or more donors/different studies)”. The same measure, in the same setting: in the case of 1489 (YFPLQSYGF) [compound 1489] it was “Yes (more dominant epitopes are defined by being recognized by 3 or more donors/different studies)”. Still for that read-out and setting: in the case of 1490 (FQPTNGVGY) [compound 1490] it was “Yes (more dominant epitopes are defined by being recognized by 3 or more donors/different studies)”; in that of 1491 (GPKKSTNLV) [compound 1491], “Yes (more dominant epitopes are defined by being recognized by 3 or more donors/different studies)”; in that of 1493 (IGAEHVNNSY) [compound 1493], “Yes (more dominant epitopes are defined by being recognized by 3 or more donors/different studies)”.

With 1494 (SPRRARSVA) [compound 1494], the Dominant result was “Yes (more dominant epitopes are defined by being recognized by 3 or more donors/different studies)”.

The values above are taken from US20250231185A1, “Coronavirus T Cell Epitopes, Megapools and Uses Thereof” (La Jolla Institute for Immunology, priority 2021, published 2025).
